Biological target: T1, Polθ polymerase domain (amino acids 1792-2590) (Homo sapiens, UniProt O75417)
T1 construct: 10×Histidine-SUMO (N, cleaved yes); made in house; host or cells: E. coli
T1 sequence (O75417 1792-2590): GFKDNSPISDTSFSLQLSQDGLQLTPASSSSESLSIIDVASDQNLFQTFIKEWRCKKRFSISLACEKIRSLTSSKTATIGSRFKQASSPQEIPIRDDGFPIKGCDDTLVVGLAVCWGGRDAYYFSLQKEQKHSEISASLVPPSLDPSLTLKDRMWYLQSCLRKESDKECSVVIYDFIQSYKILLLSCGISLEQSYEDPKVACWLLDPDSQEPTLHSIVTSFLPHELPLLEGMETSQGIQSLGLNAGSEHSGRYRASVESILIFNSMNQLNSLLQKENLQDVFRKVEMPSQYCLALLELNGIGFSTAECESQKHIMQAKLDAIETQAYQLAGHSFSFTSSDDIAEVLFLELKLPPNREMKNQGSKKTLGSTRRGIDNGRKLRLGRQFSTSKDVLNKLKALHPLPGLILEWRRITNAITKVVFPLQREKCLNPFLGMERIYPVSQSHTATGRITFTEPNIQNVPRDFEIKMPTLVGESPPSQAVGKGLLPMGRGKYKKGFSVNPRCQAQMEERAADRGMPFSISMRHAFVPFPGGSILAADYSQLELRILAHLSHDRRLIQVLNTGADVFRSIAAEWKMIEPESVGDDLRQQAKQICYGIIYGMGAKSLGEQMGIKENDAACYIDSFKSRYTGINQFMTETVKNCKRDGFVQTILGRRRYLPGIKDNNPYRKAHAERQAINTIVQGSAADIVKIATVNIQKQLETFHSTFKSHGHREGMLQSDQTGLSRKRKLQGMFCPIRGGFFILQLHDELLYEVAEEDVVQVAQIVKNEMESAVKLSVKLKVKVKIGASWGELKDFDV
Experiment: Picogreen assay of Polθ polymerase activity
Type: biochemical
Conditions: 12-point concentration response, 90 minutes incubation at room temperature, 8 nM Polθ in 2×polymerase mixture, read-out: PolQ IC50
Description: The DNA sequence of the polQ gene (Genebank ID #NM 199420.4) was chemically synthesized. The DNA sequence encoding the polymerase domain (amino acids 1792-2590) was subcloned into an E. coli expression plasmid, resulting in the fusion of 10×Histidine-SUMO tag at the N terminus of the polymerase domain.
The protein was expressed in E. coli. and purified using a 2-step IMAC (immobilized metal chelate affinity chromatography) procedure. Briefly stated, the overexpressed E. coli lysate was subjected to Ni-NTA purification, and an N-terminal tag was digested by a SUMO protease. Then, the excised fragment of 10×Histidine-SUMO tag was removed using Ni-NTA beads. The resulting protein was used for the Picogreen assay, as described below.
The methods of DNA complex preparation were slightly modified from the protocol previously reported (Zatreanu et al., 2021, Nature Communications, 12:3636). Briefly stated, polθ substrate was prepared by mixing Oligo1 (5′-GCG GCT GTC ATA AG-3′) and Oligo2 (5′-GCTACATTGACAATGGCATCAAATCTCAGATTGCGTCTTATGACAGCCGCG-3′) in an annealing buffer (20 mM Tris-Cl, pH 7.5, 50 mM NaCl) to the final concentration of 22 uM and 20 uM, respectively. The Polθ product was prepared by mixing Oligo3 (5′-CGCGGCTGTCATAAGACGCAATCTGAGATTTGATGCCATTGTCAATGTAGC-3′) and Oligo2 (5′-GCTACATTGACAATGGCATCAAATCTCAGATTGCGTCTTATGACAGCCGCG-3′) to the final concentration of 20 uM. The polθ product was used for the top signal control in the Picogreen assay. Both substrate and product were heated to 95° C. […] and cooled slowly to room temperature.
To evaluate the ability of test compounds to inhibit the activity of polθ in vitro, a Picogreen assay was performed to measure polθ IC50 (nM).
The reactions were performed at room temperature in an assay buffer (25 mM Tris-HCl, pH 7.5, 12.5 mM NaCl, 0.5 mM MgCl2, 5% (v/v) glycerol, 0.01% (v/v) Triton X-100, 0.01% (w/v) Bovine serum albumin, 1 mM DTT). Thirty microliters of 2×polymerase mixture (8 nM Polθ enzyme in an assay buffer) were distributed to 96 well plates, test compounds were prepared by dilution in 100% DMSO to obtain the correct dose range for a 12-point concentration response and 1 μl was dispensed into each well, and then 30 microliters of 2×substrate mix (100 nM DNA and 40 uM dNTPs in an assay buffer) was added. After 90 minutes of incubation, the reaction was stopped and DNA was stained by adding 40 microliters of Picogreen solution (1:80 dilution of Picogreen, Invitrogen, Cat #P7581, 25 mM Tris-HCl, pH 7.5, 10 mM EDTA, pH 7.5).
The fluorescence intensity was measured at excitation/emission=485 nm/520 nm using an Ensight plate reader (Perkin Elmer). The data was analyzed by GraphPad Prism software (Version 8.4.3) to calculate IC50.

| Compound | IC50 [nM] |
| --- | --- |
| Cc1cc(C(F)(F)F)cc(N2[C@H](C(=O)N(CC#Cc3cncc(C(=O)N4CCOCC4)n3)c3ccc(F)c(C)c3)CCS2(=O)=O)n1 [compound 70] | 1 to 50 |
| Cc1cc(C(F)(F)F)cc(N2[C@@H](C(=O)N(CC#Cc3ccc(C(N)=O)nc3)Cc3ccc(F)c(C)c3)CCS2(=O)=O)n1 [compound 114] | > 101 |
| Cc1cc(C(F)(F)F)cc(N2[C@H](C(=O)N(CC#Cc3cccc(C(N)=O)c3)c3ccc(F)c(C)c3)CCS2(=O)=O)n1 [compound 106] | 1 to 50 |
| Cc1cc(C(F)(F)F)cc(N2C(=O)CC[C@H]2C(=O)N(CC#CCN2CCN(c3cnccn3)CC2)c2ccc(F)c(C)c2F)n1 [compound 15] | 1 to 50 |
| Cc1cc(C(F)(F)F)cc(N2[C@H](C(=O)N(CC#Cc3ccc(N)nn3)c3ccc(F)c(C)c3)CN(C)S2(=O)=O)n1 [compound 109] | 1 to 50 |
| Cc1cc(C(F)(F)F)cc(N2[C@H](C(=O)N(CC#Cc3cccc(N4CCOCC4)n3)c3ccc(F)c(C)c3)CCS2(=O)=O)n1 [compound 86] | 1 to 50 |
| Cc1cc(C(F)(F)F)cc(N2[C@H](C(=O)N(CC#Cc3cccc(OC(C)C)n3)c3ccc(F)c(C)c3)CCS2(=O)=O)n1 [compound 88] | > 101 |
| C=CC(=O)Nc1ccc(C#CCN(C(=O)[C@@H]2CCS(=O)(=O)N2c2cc(C(F)(F)F)cc(C)n2)c2ccc(F)c(C)c2)nn1 [compound 129] | 1 to 50 |
| Cc1cc(C(F)(F)F)cc(N2[C@H](C(=O)N(CC#Cc3n[nH]c(=O)c4ccccc34)c3ccc(F)c(C)c3)CCS2(=O)=O)n1 [compound 101] | 51 to 100 |
| Cc1cc(C(F)(F)F)cc(N2[C@H](C(=O)N(CC#Cc3ccc(C(N)=O)nn3)c3ccc(F)c(C)c3)CCS2(=O)=O)n1 [compound 29] | 1 to 50 |
| Cc1cc(C(F)(F)F)cc(N2[C@H](C(=O)N(CC#Cc3ccc(Cc4cnc5ccc(=O)[nH]c5c4)nc3)c3ccc(F)c(C)c3)CCS2(=O)=O)n1 [compound 134] | 1 to 50 |
| Cc1cc(C(F)(F)F)cc(N2[C@H](C(=O)N(CC#Cc3nc(C)c(C(N)=O)nc3C)c3ccc(F)c(C)c3)CCS2(=O)=O)n1 [compound 119] | 1 to 50 |
| Cc1cc(C(F)(F)F)cc(N2[C@H](C(=O)N(CC#Cc3ccc(NC(C)C)nn3)c3ccc(F)c(C)c3F)CCS2(=O)=O)n1 [compound 21] | 1 to 50 |
| Cc1cc(C(F)(F)F)cc(N2C(=O)CC[C@H]2C(=O)N(CC#Cc2ccc(N)nn2)c2ccc(F)c(Cl)c2)n1 [compound 3] | 1 to 50 |
| Cc1cc(C(F)(F)F)cc(N2[C@H](C(=O)N(CC#Cc3cnc(N)cn3)c3ccc(F)c(C)c3F)CCS2(=O)=O)n1 [compound 17] | 1 to 50 |
| Cc1cc(C(F)(F)F)cc(N2[C@H](C(=O)N(CC#Cc3cnc(N4[C@H](C)CN(C(C)C)C[C@H]4C)cn3)c3ccc(F)c(C)c3)CCS2(=O)=O)n1 [compound 55] | 1 to 50 |
| Cc1cc(C(F)(F)F)cc(N2[C@H](C(=O)N(CC#Cc3ccc(C(N)=O)nc3)Cc3ccc(F)c(C)c3)CCS2(=O)=O)n1 [compound 113] | > 101 |
| CCN1CCN(c2ccc(C#CCN(C(=O)[C@@H]3CCS(=O)(=O)N3c3cc(C(F)(F)F)cc(C)n3)c3ccc(F)c(C)c3)nn2)CC1 [compound 24] | 1 to 50 |
| Cc1cc(C(F)(F)F)cc(N2C(=O)CC[C@H]2C(=O)N(CC#Cc2cccc(=O)[nH]2)c2ccc(F)c(C)c2)n1 [compound 7] | 1 to 50 |

| Compound | IC50 [nM] |
| --- | --- |
| Cc1cc(C(F)(F)F)cc(N2[C@H](C(=O)N(CC#Cc3cncn3C)c3ccc(F)c(C)c3)CCS2(=O)=O)n1 [compound 102] | 1 to 50 |
| Cc1cc(C(F)(F)F)cc(N2C(=O)CC[C@H]2C(=O)N(CC#CCN2CCOCC2)c2ccc(F)c(C)c2F)n1 [compound 14] | 1 to 50 |
| Cc1cc(C(F)(F)F)cc(N2[C@H](C(=O)N(CC#Cc3cnc(N4CCOCC4)nc3)c3ccc(F)c(C)c3)CCS2(=O)=O)n1 [compound 77] | 1 to 50 |
| Cc1cc(C(F)(F)F)cc(N2[C@H](C(=O)N(CC#Cc3ncc(C(=O)N4C5CCC4COC5)cn3)c3ccc(F)c(C)c3)CCS2(=O)=O)n1 [compound 83] | 1 to 50 |
| Cc1cc(C(F)(F)F)cc(N2[C@H](C(=O)N(CC#Cc3ccc(-c4ncon4)nc3)c3ccc(F)c(C)c3)CCS2(=O)=O)n1 [compound 116] | 1 to 50 |
| Cc1cc(C(F)(F)F)cc(N2[C@H](C(=O)N(CC#Cc3ncc(C(N)=O)nc3C)c3ccc(F)c(C)c3)CCS2(=O)=O)n1 [compound 118] | 1 to 50 |
| Cc1cc(C(F)(F)F)cc(N2[C@H](C(=O)N(CC#Cc3cccc(C(N)=O)n3)c3ccc(F)c(C)c3)CCS2(=O)=O)n1 [compound 120] | 1 to 50 |
| Cc1cc(C(F)(F)F)cc(N2C(=O)CC[C@H]2C(=O)N(CC#Cc2ccc(F)cn2)c2ccc(F)c(C)c2)n1 [compound 8] | 1 to 50 |
| C=CC(=O)Nc1cnccc1C#CCN(C(=O)[C@@H]1CCS(=O)(=O)N1c1cc(C(F)(F)F)cc(C)n1)c1ccc(F)c(C)c1 [compound 144, (S)-N-(3-(3-acrylamidopyridin-4-yl)prop-2-yn-1-yl)-N-(4-fluoro-3-methylphenyl)-2-(6-methyl-4-(trifluoromethyl)pyridin-2-yl)isothiazolidine-3-carboxamide 1,1-dioxide] | 51 to 100 |
| Cc1cc(C(F)(F)F)cc(N2[C@H](C(=O)N(CC#Cc3ccc(Cc4ccc(C(N)=O)nn4)nc3)c3ccc(F)c(C)c3)CCS2(=O)=O)n1 [compound 131] | 1 to 50 |
| Cc1ccc(F)c(N(CC#Cc2cnc(N3CCOCC3)cn2)C(=O)[C@@H]2CCS(=O)(=O)N2c2cc(C(F)(F)F)cc(C)n2)c1 [compound 40] | 1 to 50 |
| CCN(CC)c1ccc(C#CCN(C(=O)[C@@H]2CCS(=O)(=O)N2c2cc(C(F)(F)F)cc(C)n2)c2ccc(F)c(C)c2)nn1 [compound 25] | 1 to 50 |
| Cc1cc(C(F)(F)F)cc(N2[C@H](C(=O)N(CC#Cc3cnc(C(N)=O)c(C)n3)c3ccc(F)c(C)c3)CCS2(=O)=O)n1 [compound 62] | 1 to 50 |
| Cc1cc(C(F)(F)F)cc(N2[C@H](C(=O)N(CC#Cc3cc(C)c(F)c(C)n3)c3ccc(F)c(C)c3)CCS2(=O)=O)n1 [compound 90] | 51 to 100 |
| Cc1cc(C(F)(F)F)cc(N2[C@H](C(=O)N(CC#Cc3cnc4c(c3)C(C)(C)N(C)C4=O)c3ccc(F)c(C)c3)CCS2(=O)=O)n1 [compound 99] | 1 to 50 |
| CCN1CCN(c2cnc(C#CCN(C(=O)[C@@H]3CCS(=O)(=O)N3c3cc(C(F)(F)F)cc(C)n3)c3ccc(F)c(C)c3)cn2)CC1 [compound 50] | 1 to 50 |
| Cc1cc(C(F)(F)F)cc(N2[C@H](C(=O)N(CC#Cc3cnc(NC(C)C)cn3)c3ccc(F)c(C)c3)CCS2(=O)=O)n1 [compound 36] | 1 to 50 |
| CCN1CCN(c2cnc(C#CCN(C(=O)[C@@H]3CCC(=O)N3c3cc(C(F)(F)F)cc(C)n3)c3ccc(F)c(C)c3)cn2)CC1 [compound 11] | 1 to 50 |
